Test results reported in patent publication US8309685B2 (Celgene Avilomics Research, Inc., priority 2007, dated 2012).

What was measured:
[1] = system: HCV RNA replicon in cell line ET (luc-ubi-neo/ET), human Huh7 hepatoma; experiment: Method A: HCV RNA replicon antiviral assay (luciferase, ET cell line); assay type: cell-based, Hepatitis C virus; details: Hepatitis C virus, Huh-7, assay described in Example 22; for IC50: read-out: Replicon (IC50)
Experimental: The compounds were assayed to evaluate the antiviral activity and cytotoxicity of compounds in vitro using HCV RNA replicons. This assay used the cell line ET (luc-ubi-neo/ET), which is a human Huh7 hepatoma cell line that contains an HCV RNA replicon with a stable luciferase (Luc) reporter and three cell culture-adaptive mutations. […]
The ET cell line was grown in Dulbecco's modified essential media (DMEM), 10% fetal bovine serum (FBS), 1% penicillin-streptomycin (pen-strep), 1% glutamine, 250 μg/ml G418 in a 5% CO2 incubator at 37° C. All cell culture reagents were obtained from Mediatech (Manassas, Va.). Cells were trypsinized (1% trypsin:EDTA) and plated out at 5×10^3 cells/well in white 96-well assay plates (Costar) dedicated to cell number (cytotoxicity) or antiviral activity assessments. Drugs were added at six 3-fold concentrations each and the assay was run in DMEM, 5% FBS, 1% pen-strep, 1% glutamine. Human interferon alpha-2b (PBL Biolabs, New Brunswick, N.J.) was included in each run as a positive control compound. Cells were processed 72 hr post drug addition when the cells are still subconfluent. Antiviral activity was measured by analyzing replicon-derived luciferase activity using the Steady-Glo Luciferase Assay System (Promega, Madison, Wis.) according to manufacturer's instruction. The number of cells in each well was determined by CytoTox-1 reagent (Promega). Compound profile was derived by calculating applicable EC50 (effective concentration inhibiting virus replication by 50%), EC90 (effective concentration inhibiting virus replication by 90%), IC50 (concentration decreasing cell viability by 50%) and SI50 (selective index: […]) values.

[2] = target: T1, D168A mutant of the HCV NS3/4A 1b protease enzyme (Hepatitis C virus genotype 1b, UniProt P26663, D1194A); experiment: HCV Protease FRET Assay (IC50_APP), D168A mutant; assay type: biochemical; details: apparent IC50, D168A mutant; read-out: IC50_APP, HCV D168A
T1 construct: 10× stocks of NS3/4A protease enzyme from Bioenza (Mountain View, Calif.); purchased Bioenza (Mountain View, Calif.)
Experimental: (§1) HCV Protease FRET Assay for WT and Mutated NS3/4A 1b Enzymes (IC50—APP).
(§2) The following protocol was used to generate “apparent” IC50 (IC50—APP) values as depicted in Table 6, below. […] 5 μL of each enzyme were added to Corning (#3575) 384-well, black, microtiter plates (Corning, N.Y.) after spotting a 0.5 μL volume of 50% DMSO and serially diluted compounds prepared in 50% DMSO. Protease reactions were immediately started after enzyme addition with the addition of 45 μL of the FRET substrate and monitored for 60-90 minutes at λex485/λem520 in a Synergy^4 plate reader from BioTek (Winooski, Vt.). At the conclusion of each assay, progress curves from each well were examined for linear reaction kinetics and fit statistics (R^2, 95% confidence intervals, absolute sum of squares).
(§3) The compound numbers correspond to the compound numbers in Table 3. […] ;

[3] = target: T2, A156T mutant of the HCV NS3/4A 1b protease enzyme (Hepatitis C virus genotype 1b, UniProt P26663, A1182T); experiment: HCV Protease FRET Assay (IC50_APP), A156T mutant; assay type: biochemical; details: apparent IC50, A156T mutant; read-out: IC50_APP, HCV A156T
T2 construct: 10× stocks of NS3/4A protease enzyme from Bioenza (Mountain View, Calif.); purchased Bioenza (Mountain View, Calif.)
Experimental: as §1, §2, §3

[4] = target: T3, wild type HCV NS3/4A 1b protease enzyme (Hepatitis C virus genotype 1b, UniProt P26663); experiment: HCV Protease FRET Assay (IC50_APP), wild type; assay type: biochemical; details: read-out: IC50_APP, WT; apparent IC50, wild type NS3/4A 1b
T3 construct: 10× stocks of NS3/4A protease enzyme from Bioenza (Mountain View, Calif.); purchased Bioenza (Mountain View, Calif.)
Experimental: as §1, §2, §3

SMILES	IC90 [1]	IC50 [1]	IC50 [2]	IC50 [3]	IC50 [4]
C#Cc1ccc(S(=O)(=O)NC(=O)[C@@]2(NC(=O)[C@@H]3C[C@@H](Oc4cc(-c5ccccc5)nc5cc(OC)ccc45)CN3C(=O)[C@H](CNC(=O)C=C)NC(=O)OC(C)(C)C)C[C@H]2C=C)cc1 [Compound I-61, t-butyl-(S)-3-acrylamido-1-((2S,4R)-2-((1R,2S)-1-(4-ethynylphenylsulfonylcarbamoyl)-2-vinylcyclopropylcarbamoyl)-4-(7-methoxy-2-phenylquinolin-4-yloxy)pyrrolidin-1-yl)-1-oxopropan-2-ylcarbamate]	1000 to 10000 nM	100 to 1000 nM	1000 to 10000 nM	1000 to 10000 nM	10 to 100 nM
C=C[C@@H]1C[C@]1(NC(=O)[C@@H]1CC(Oc2cc(-c3ccccc3)nc3cc(OC)ccc23)CN1C(=O)OC(C)(C)C)C(=O)NS(=O)(=O)C1CC1 (stereo partly drawn) [Compound I-62]	100 to 1000 nM	10 to 100 nM	1000 to 10000 nM	100 to 1000 nM	< 10 nM
C=CC(=O)O[C@H](C)[C@H](NC(=O)OC(C)(C)C)C(=O)N1C[C@H](Oc2cc(-c3ccccc3)nc3cc(OC)ccc23)C[C@H]1C(=O)N[C@]1(C(=O)NS(=O)(=O)C2CC2)C[C@H]1C=C [Compound I-64, t-butyl-(2S,3R)-3-acryloxy-1-((2S,4R)-2-((1R,2S)-1-(cyclopropylsulfonylcarbamoyl)-2-vinylcyclopropylcarbamoyl)-4-(7-methoxy-2-phenylquinolin-4-yloxy)pyrrolidin-1-yl)-1-oxobutan-2-ylcarbamate]	100 to 1000 nM	100 to 1000 nM	10 to 100 nM	10 to 100 nM	< 10 nM
C=CC(=O)N[C@@H](C(=O)N1C[C@H](Oc2cc(-c3ccccc3)nc3cc(OC)ccc23)C[C@H]1C(=O)N[C@]1(C(=O)NS(=O)(=O)C2CC2)C[C@H]1C=C)c1ccccc1 [Compound I-66, (2S,4R)-1-((R)-2-acrylamido-phenylacetyl)-N-((1R,2S)-1-(cyclopropylsulfonylcarbamoyl)-2-vinylcyclopropyl)-4-(7-methoxy-2-phenylquinolin-4-yloxy)pyrrolidine-2-carboxamide]	100 to 1000 nM	10 to 100 nM	100 to 1000 nM	100 to 1000 nM	< 10 nM
C=C[C@@H]1C[C@]1(NC(=O)[C@@H]1C[C@@H](Oc2cc(-c3ccccc3)nc3cc(OC)ccc23)CN1C(=O)[C@H](CCC(=O)N[C@@H]1C(=O)O[C@@H]1C)NC(=O)OC(C)(C)C)C(=O)NS(=O)(=O)C1CC1 [Compound I-67, t-butyl-(2S)-1-((2S,4R)-2-((1R,2S)-1-(cyclopropylsulfonylcarbamoyl)-2-vinylcyclopropylcarbamoyl)-4-(7-methoxy-2-phenylquinolin-4-yloxy)pyrrolidin-1-yl)-5-((2R,3S)-2-methyl-4-oxooxetan-3-ylamino)-1,5-dioxopentan-2-ylcarbamate]	100 to 1000 nM	10 to 100 nM	< 10 nM	< 10 nM	< 10 nM
C=C[C@@H]1C[C@]1(NC(=O)[C@@H]1C[C@@H](Oc2cc(-c3ccccc3)nc3cc(OC)ccc23)CN1C(=O)[C@H](CCC(=O)C=C(C)C)NC(=O)OC(C)(C)C)C(=O)NS(=O)(=O)C1CC1 [Compound I-68, tert-butyl-(S)-1-((2S,4R)-2-((1R,2S)-1-(cyclopropylsulfonylcarbamoyl)-2-vinylcyclopropylcarbamoyl)-4-(7-methoxy-2-phenylquinolin-4-yloxy)pyrrolidin-1-yl)-7-methyl-1,5-dioxooct-6-en-2-ylcarbamate]	10 to 100 nM	< 10 nM	100 to 1000 nM	100 to 1000 nM	< 10 nM
